{"source": "patent US20050159425A1", "about": "“Methods of therapy” (priority 2002, published 2005)", "key": {"PDE": {"test_system": "PDE", "conditions": "cited from earlier work"}, "type IV PDE": {"test_system": "type IV PDE", "conditions": "cited from earlier work; for IC50: type IV PDE selective inhibitor"}, "[1]": {"test_system": "IL-10 release from U937 cells", "test": "IL-10 release from U937 cells (ELISA)", "assay_type": "cell-based, human", "experimental": "U 937 cells were grown in RPMI (PAA Laboratories) medium with 10% fetal calf serum added (PAA Laboratories). 2×10^6 cells per flask were treated with prostaglandin E2 at 10^−6 Molar or with Rolipram (4×10^−6) for 24 hours. Medium was removed at 20 hours and analysed by ELISA. A capture antibody (Pharmingen) was coated onto 96 well plates and culture medium was added each well. A standard curve was created with recombinant IL-10 protein. After incubation and washing, a biotin labelled monoclonal antibody (Pharmingen) was added and following incubation and washing, peroxidase labelled streptavidin was added. After washing a tetramethyl benzidine substrate was added and colour developed in proportion to IL-10 in the original sample/standard. Colour was read using a plate photometer (Labsystems, Multiskan). Mean concentrations (N=3) in controls with no lipopolysaccharide (LPS) were […] and in the presence of LPS (100 nM) they were 43.9 […].\nThe effect of PGE1, PGE2, 19 hydroxy PGE1 and 19 hydroxy PGE2 on the stimulation of IL-10 in the presence and absence of rolipram was investigated as described above in Example 2. IL-10 levels were measured using an ELISA assay (R&D Ltd, Oxford). Measurement was performed according to the manufacturer's instructions."}, "[2]": {"test_system": "phosphodiesterase IV b mRNA", "test": "phosphodiesterase IV-b mRNA in U937 cells (Taqman)", "assay_type": "cell-based, human", "conditions": "four hours of incubation; for PDE activity (phosphodiesterase IV b mRNA) after application: PGE 1×10^−6, 19-hydroxy PGE2 5×10^−6, without rolipram", "experimental": "Template was amplified in a Taqman 7700 machine for 40 cycles using FAM/TAMRA dyes on the probe. The Applied Biosystems kit was used to amplify and detect ribosomal (18S)RNA (using VIC/TAMRA dyes) as an internal control in the same reaction tube. After 40 cycles the Ct (related to cycle number at which signal appears) for the FAM and the 18S (VIC) were recorded and […] relative quantitation was achieved using the formula 2^−ΔΔCt where Δ refers to the difference between the FAM and VIC signal related to an standard comparator included in each run.\nThe mRNA for phosphodiesterase IV-b was measured as described in Example 2 above. mRNA was extracted after four hours of incubation. The concentration of the PGE was 1×10^−6 and that of the 19-hydroxy PGE2 was 5×10^−6. The following primers and Taqman probe were used for quantitation of PDE IV b mRNA."}, "[3]": {"test_system": "monocyte/macrophages stimulated with lipopolysaccharide (LPS)", "conditions": "cited from earlier work"}, "[4]": {"conditions": "in vivo; cited from earlier work"}}}
{"molecule": "Cn1c(=O)c2c(ncn2C)n(C)c1=O", "note": "[caffeine]", "values": [{"measurement": "activity as non-specific PDE inhibitor", "setting": "PDE; compared with theophylline, IBMX and pentoxifylline", "result": "not as active as the others"}]}
{"molecule": "Cn1c(=O)c2[nH]cnc2n(C)c1=O", "note": "[theophylline]", "values": [{"measurement": "times less effective than rolipram", "setting": "type IV PDE; non-selective inhibitor compared with rolipram", "result": 30, "unit": "times"}]}
{"molecule": "COc1ccc(C2CNC(=O)NC2)cc1O[C@H]1C[C@@H]2CC[C@H]1C2", "note": "[CP 80 633]", "values": [{"measurement": "type IV PDE inhibition", "setting": "type IV PDE", "result": "potent type IV inhibitors"}]}
{"molecule": "CCCCC[C@H](O)/C=C/[C@H]1[C@H](O)CC(=O)[C@@H]1C/C=C\\CCCC(=O)O", "note": "[PGE2, prostaglandin E2]", "values": [{"measurement": "effect on release of IL-10 in combination with PDE inhibitor rolipram", "setting": "[1]; combination with rolipram", "result": "synergistic"}, {"measurement": "stimulation of IL-10 in the presence of a PDE inhibitor", "setting": "[1]", "result": "increased strikingly"}, {"measurement": "PDE activity (phosphodiesterase IV b mRNA) after application", "setting": "[2]", "result": "increase"}, {"measurement": "PDE message levels with a type IV selective PDE inhibitor", "setting": "[2]; with type IV selective PDE inhibitor (rolipram)", "result": "increases PDE message levels even further"}]}
{"molecule": "CCCCOc1cc(CC2CNC(=O)N2)ccc1OC", "note": "(stereo not shown) [Ro-20-1724, 4-[3-butoxy-4-methoxybenzyl]-2-imidazolidinone]", "values": [{"measurement": "IC50", "setting": "type IV PDE", "result": 2000, "unit": "nM"}]}
{"molecule": "19-hydroxy PGE2", "values": [{"measurement": "concentration necessary to achieve similar effects to PGE", "setting": "[1]; compared with PGE", "result": "higher concentration"}, {"measurement": "stimulation of IL-10 in the presence of a PDE inhibitor", "setting": "[1]", "result": "increased strikingly"}, {"measurement": "PDE activity (phosphodiesterase IV b mRNA) after application", "setting": "[2]", "result": "increase"}]}
{"molecule": "COc1ccc(C2CNC(=O)C2)cc1OC1CCCC1", "note": "(stereo not shown) [rolipram, 4-[3-cyclopentyloxy-4-methoxyphenyl]-2-pyrrolidinone]", "values": [{"measurement": "IC50", "setting": "type IV PDE", "result": 800, "unit": "nM"}, {"measurement": "IL-10 levels", "setting": "[3]", "result": "raise"}, {"measurement": "cAMP levels", "setting": "[3]", "result": "raise"}]}
{"molecule": "CCCCC(C)(O)CC=C[C@H]1[C@H](O)CC(=O)[C@@H]1CCCCCCC(=O)OC", "note": "(mixture of isomers) [Cytotec, (±) methyl 11α, 16-dihydroxy-16-methyl-9-oxoprost-13-enoate]", "values": [{"measurement": "hypotension", "setting": "[4]", "result": "does not cause hypotension"}]}
{"molecule": "CC(C)Cn1c(=O)n(C)c(=O)c2[nH]cnc21", "note": "[IBMX, 3-isobutyl-1-methylxanthine]", "values": [{"measurement": "IC50", "setting": "PDE; non-specific PDE inhibitor", "result": "2000 to 50000", "unit": "nM"}]}
